Measured values from PubChem BioAssay AID248 (DTP/NCI, 2004).
Where “and” joins values, the source holds several entries; their conditions need not be identical. Equal values may be shown once. Toxic doses and inconclusive results are not listed. No stated cut-off is given here; in the data, active means T/C of 150% or more; inactive means T/C below 125%.

Tested on: L1210 leukemia ip in BDF1 mice, survival T/C
Assay: NCI In Vivo Anticancer Drug Screen. Data for tumor model L1210 Leukemia (intraperitoneal) in B6D2F1 (BDF1) mice
Details: endpoint: mean survival time, higher = longer survival
Procedure, shortened: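 Value reflects the ratio of survival in compound-treated mice to survival in vehicle-treated controls, with both groups carrying the same transplanted tumor.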

[1] = dose: 100.0 mg/kg/injection, schedule: Q04DX003 (ip), vehicle: other
[2] = dose: 200.0 mg/kg/injection, schedule: Q04DX003 (ip), vehicle: other
[3] = dose: 25.0 mg/kg/injection, schedule: Q04DX002 (ip), vehicle: saline with Tween-80
[4] = dose: 100.0 mg/kg/injection, schedule: Q04DX002 (ip), vehicle: saline with Tween-80
[5] = dose: 400.0 mg/kg/injection, schedule: Q04DX002 (ip), vehicle: saline with Tween-80
[6] = dose: 50.0 mg/kg/injection, schedule: Q01DX001 (ip), vehicle: saline
[7] = dose: 100.0 mg/kg/injection, schedule: Q01DX001 (ip), vehicle: saline
[8] = dose: 200.0 mg/kg/injection, schedule: Q01DX001 (ip), vehicle: saline
[9] = dose: 400.0 mg/kg/injection, schedule: Q01DX001 (ip), vehicle: saline
[10] = dose: 100.0 mg/kg/injection, schedule: Q01DX009 (ip), vehicle: saline
[11] = dose: 100.0 mg/kg/injection, schedule: Q04DX003 (ip), vehicle: saline
[12] = dose: 200.0 mg/kg/injection, schedule: Q01DX009 (ip), vehicle: saline
[13] = dose: 200.0 mg/kg/injection, schedule: Q04DX003 (ip), vehicle: saline
[14] = dose: 400.0 mg/kg/injection, schedule: Q01DX009 (ip), vehicle: saline
[15] = dose: 400.0 mg/kg/injection, schedule: Q04DX003 (ip), vehicle: saline
[16] = dose: 100.0 mg/kg/injection, schedule: Q01DX009 (ip), vehicle: saline with Tween-80
[17] = dose: 100.0 mg/kg/injection, schedule: Q04DX003 (ip), vehicle: Klucel (hydroxypropylcellulose) (HPC)
[18] = dose: 200.0 mg/kg/injection, schedule: Q01DX009 (ip), vehicle: saline with Tween-80
[19] = dose: 200.0 mg/kg/injection, schedule: Q04DX003 (ip), vehicle: Klucel (hydroxypropylcellulose) (HPC)
[20] = dose: 400.0 mg/kg/injection, schedule: Q01DX009 (ip), vehicle: saline with Tween-80
[21] = dose: 400.0 mg/kg/injection, schedule: Q04DX003 (ip), vehicle: Klucel (hydroxypropylcellulose) (HPC)
[22] = dose: 100.0 mg/kg/injection, schedule: Q01DX009 (ip), vehicle: Klucel (hydroxypropylcellulose) (HPC)
[23] = dose: 200.0 mg/kg/injection, schedule: Q01DX009 (ip), vehicle: Klucel (hydroxypropylcellulose) (HPC)
[24] = dose: 75.0 mg/kg/injection, schedule: Q01DX009 (ip), vehicle: Klucel (hydroxypropylcellulose) (HPC)
[25] = dose: 150.0 mg/kg/injection, schedule: Q01DX009 (ip), vehicle: Klucel (hydroxypropylcellulose) (HPC)

Measured: T/C

CC(C)(C)P1(=O)OCC(c2ccccc2)CO1 (configuration not stated)
inactive: [1] 101 % of control | [2] 107 % of control

COC(=O)C12C(=CCP1(C)=O)C(c1ccccc1)=NN2c1ccccc1 (configuration not stated)
inactive: dose: 12.5 mg/kg/injection, schedule: Q04DX002 (ip), vehicle: saline with Tween-80 92 % of control | [3] 95 % of control

COc1cccc(NC(=S)NC2CCCCCCCCCCC2)c1
inactive: dose: 100.0 mg/kg/injection, schedule: Q04DX002 (ip), vehicle: gum acacia 94 % of control | dose: 200.0 mg/kg/injection, schedule: Q04DX002 (ip), vehicle: gum acacia 94 % of control | dose: 400.0 mg/kg/injection, schedule: Q04DX002 (ip), vehicle: gum acacia 94 % of control

Nc1ccccc1Sc1ccc2c3c(cccc13)C(=O)N(c1ccccc1)C2=O
inactive: [4] 87 % of control | [5] 94 % of control

Nc1c(C(F)(F)F)[nH]c(Cl)nc1=S
inactive: dose: 29.0 mg/kg/injection, schedule: Q01DX Z (ip), vehicle: methylcellulose (MC) 105 % of control | dose: 66.0 mg/kg/injection, schedule: Q01DX Z (ip), vehicle: methylcellulose (MC) 94 % of control

COc1ccc(C2(CO)OC(CO)C(O)C2O)cc1 (configuration not stated)
inactive: [6] 105 % of control | [7] 103 % of control | [8] 97 % of control | [9] 94 % of control

O=C(O)C1C2C=CC(CO)(O2)C1C(=O)O (configuration not stated)
inactive: [10] 97 % of control | [11] 97 % of control | [12] 100 % of control | [13] 92 % of control | [14] 96 % of control | [15] 95 % of control

O=C(CBr)Nc1ccc(S(=O)(=O)F)cc1
inactive: dose: 2.34 mg/kg/injection, schedule: Q01DX009 (ip), vehicle: carboxymethylcellulose (CMC) 94 % of control | dose: 4.68 mg/kg/injection, schedule: Q01DX009 (ip), vehicle: carboxymethylcellulose (CMC) 86 % of control | dose: 9.37 mg/kg/injection, schedule: Q01DX009 (ip), vehicle: carboxymethylcellulose (CMC) 86 % of control | dose: 18.75 mg/kg/injection, schedule: Q04DX003 (ip), vehicle: carboxymethylcellulose (CMC) 101 % of control | dose: 75.0 mg/kg/injection, schedule: Q01DX001 (ip), vehicle: carboxymethylcellulose (CMC) 94 % of control

CCOC(=O)Cc1cc(Cl)c2cc(C)ccc2n1
inactive: [7] 92 % of control | [8] 100 % of control | [9] 103 % of control and 89 % of control

CCc1cccc2c1C(=O)OC2=O
inactive: [10] 94 % of control | [12] 91 % of control

CC(=O)Oc1c(F)c(F)c(F)c(F)c1F
inactive: [3] 87 % of control | dose: 50.0 mg/kg/injection, schedule: Q04DX002 (ip), vehicle: saline with Tween-80 90 % of control | [4] 93 % of control

O/N=C/c1ccc(O)cc1
inactive: [6] 96 % of control | [7] 108 % of control | [8] 102 % of control

COc1ccc(C(=O)N=C(c2ccccc2)c2ccccc2)cc1
inactive: [16] 95 % of control | [17] 92 % of control | [18] 98 % of control | [19] 97 % of control | [20] 93 % of control | [21] 95 % of control

O=C1OC2CCC3C1C3C2Br (configuration not stated)
inactive: dose: 25.0 mg/kg/injection, schedule: Q01DX009 (ip), vehicle: acetone 92 % of control

CCOC(C[N+](C)(C)CCC[N+](C)(C)CC(OCC)OCC)OCC
inactive: [7] 111 % of control | [8] 96 % of control | [9] 111 % of control

O=C(Nc1ccccc1C(F)(F)F)Oc1ccc(Cl)cc1Cc1ccccc1
inactive: [16] 93 % of control | [4] 117 % of control | [18] 101 % of control | dose: 200.0 mg/kg/injection, schedule: Q04DX002 (ip), vehicle: saline with Tween-80 98 % of control | [20] 101 % of control | [5] 98 % of control

CCCCNC(=O)Nc1ccc(C(=O)OCC)cc1
inactive: [22] 98 % of control | [17] 95 % of control | [23] 98 % of control | [19] 96 % of control | dose: 400.0 mg/kg/injection, schedule: Q01DX009 (ip), vehicle: Klucel (hydroxypropylcellulose) (HPC) 88 % of control | [21] 94 % of control

COc1ccc2ccc(OC)c(C=O)c2c1
inactive: [24] 98 % of control | [25] 101 % of control | dose: 300.0 mg/kg/injection, schedule: Q01DX009 (ip), vehicle: Klucel (hydroxypropylcellulose) (HPC) 98 % of control

C=CS(=O)(=O)CCN(C)C
inactive: dose: 100.0 mg/kg/injection, schedule: Q04DX002 (ip), vehicle: saline 94 % of control | dose: 200.0 mg/kg/injection, schedule: Q04DX002 (ip), vehicle: saline 90 % of control | dose: 400.0 mg/kg/injection, schedule: Q04DX002 (ip), vehicle: saline 94 % of control

CCn1cnc2c(SC)nc(N)nc21
inactive: dose: 37.5 mg/kg/injection, schedule: Q01DX009 (ip), vehicle: Klucel (hydroxypropylcellulose) (HPC) 101 % of control | dose: 50.0 mg/kg/injection, schedule: Q04DX003 (ip), vehicle: other 101 % of control | [24] 103 % of control | [1] 104 % of control | [25] 108 % of control | [2] 87 % of control

CCC(=O)Nc1cccc(C)c1C
inactive: [22] 93 % of control | [17] 102 % of control | [23] 106 % of control | [19] 102 % of control | [21] 95 % of control

CN(C)CCN(C)Cc1cc(=O)[nH]c(=O)[nH]1
inactive: [11] 96 % of control | [13] 100 % of control | [15] 100 % of control

Cn1cnc([N+](=O)[O-])c1[Se]c1ncnc2c1ncn2C1OC(CO)C(O)C1O (configuration not stated)
inactive: dose: 12.5 mg/kg/injection, schedule: Q01DX005 (ip), vehicle: saline 104 % of control | dose: 25.0 mg/kg/injection, schedule: Q01DX005 (ip), vehicle: saline 98 % of control

Cc1nc(NN)ccc1[N+](=O)[O-]
inactive: dose: 100.0 mg/kg/injection, schedule: Q04DX002 (ip), vehicle: Klucel (hydroxypropylcellulose) (HPC) 96 % of control | dose: 200.0 mg/kg/injection, schedule: Q04DX002 (ip), vehicle: Klucel (hydroxypropylcellulose) (HPC) 90 % of control | dose: 400.0 mg/kg/injection, schedule: Q04DX002 (ip), vehicle: Klucel (hydroxypropylcellulose) (HPC) 96 % of control

CCOC(=O)c1cc2c3n(c1=O)CCCC3C(c1ccccn1)OC2=O (configuration not stated)
inactive: [7] 92 % of control | [8] 98 % of control | [9] 103 % of control

CSC1CCCCC1O (configuration not stated)
inactive: dose: 50.0 mg/kg/injection, schedule: Q01DX009 (ip), vehicle: saline with Tween-80 89 % of control | [16] 92 % of control | [18] 92 % of control

N/N=C\C=N\N
inactive: dose: 15.0 mg/kg/injection, schedule: Q01DX Z (ip), vehicle: saline 107 % of control | dose: 30.0 mg/kg/injection, schedule: Q01DX Z (ip), vehicle: saline 107 % of control | dose: 60.0 mg/kg/injection, schedule: Q01DX Z (ip), vehicle: saline 107 % of control

CN(C)C=Nc1ccc(Cl)c2ccccc12
inactive: dose: 100.0 mg/kg/injection, schedule: Q01DX001 (ip), vehicle: Klucel (hydroxypropylcellulose) (HPC) 99 % of control | [17] 98 % of control | dose: 200.0 mg/kg/injection, schedule: Q01DX001 (ip), vehicle: Klucel (hydroxypropylcellulose) (HPC) 96 % of control | [19] 101 % of control | dose: 400.0 mg/kg/injection, schedule: Q01DX001 (ip), vehicle: Klucel (hydroxypropylcellulose) (HPC) 97 % of control

CCSC(C(O)C(O)C(O)CO)n1ccc(N)nc1=O (configuration not stated)
inactive: dose: 100.0 mg/kg/injection, schedule: Q01DX005 (ip), vehicle: saline 101 % of control and 104 % of control | [10] 106 % of control and 109 % of control | dose: 200.0 mg/kg/injection, schedule: Q01DX005 (ip), vehicle: saline 95 % of control and 98 % of control and 101 % of control | [12] 106 % of control and 98 % of control | [14] 112 % of control and 102 % of control

C[Si](C)(O)CCl
inactive: dose: 75.0 mg/kg/injection, schedule: Q01DX001 (ip), vehicle: saline 102 % of control

C#CC1=CCCC1
inactive: [7] 95 % of control | [8] 100 % of control | [9] 95 % of control
